Laboratory results taken from US20230357152A1 (priority 2020, published 2023).

What follows are compounds tested on Fusarium culmorum (assay: microbe, parasite or virus in culture). Conditions: 168 h.
Format: cell-based

SMILES | activity at 31 ppm
CNC(=O)/C(=N/OC)c1cccc(C)c1CO/N=C(\C)c1cccc(OC)n1 [Example 3] | 6%
CO/N=C(/C(=O)OC)c1cccc(C)c1CO/N=C(\C)c1cc(-c2ccc(Cl)cc2)sn1 [Example 7] | 11%
CO/N=C(/C(=O)OC)c1cccc(C(F)(F)F)c1CO/N=C(\C)c1cc(-c2ccc(Cl)cc2)on1 [Example 16] | 19%
CNC(=O)/C(=N/OC)c1cccc(C(F)(F)F)c1CO/N=C(\C)c1cc(-c2ccc(Cl)cc2)on1 [Example 17] | 14%
CO/N=C(/C(=O)OC)c1cccc(C)c1CO/N=C(\C)c1cc(-c2cccc(C(F)(F)F)c2)on1 [Example 19] | 20%
CNC(=O)/C(=N/OC)c1cccc(C)c1CO/N=C(\C)c1cc(-c2ccc(Cl)cc2)on1 [Example 20] | 17%
CNC(=O)/C(=N/OC)c1cccc(C)c1CO/N=C(\C)c1cc(C)ccn1 [Example 26] | 12%
CO/N=C(/C(=O)OC)c1cccc(C)c1CO/N=C(\C)c1cc(-c2cccc(C(F)(F)F)c2)sn1 [Example 35] | 20%
CNC(=O)/C(=N/OC)c1cccc(C)c1CO/N=C(\C)c1cc(-c2ccccc2)sn1 [Example 38] | 16%
CNC(=O)/C(=N/OC)c1cccc(C)c1CO/N=C(\C)c1nccc2ccccc12 [Example 45] | 4%
CO/N=C(/C(=O)OC)c1cccc(C)c1CO/N=C(\C)c1cn(C)nc1C(F)(F)F [Example 51] | 8%
CNC(=O)/C(=N/OC)c1cccc(C)c1CO/N=C(\C)c1cc(OC)ccn1 [Example 56] | 11%
CNC(=O)/C(=N/OC)c1cccc(C)c1CO/N=C(\C)c1cc(C(F)(F)F)nc(C)n1 [Example 58] | 17%
CNC(=O)/C(=N/OC)c1cccc(C)c1CO/N=C(\C)c1cc2ccccc2cn1 [Example 67] | 9%
CO/N=C(/C(=O)OC)c1cccc(C)c1CO/N=C(\C)c1ccc(C#CC2CC2)nc1 [Example 68] | 13%
CNC(=O)/C(=N/OC)c1cccc(C)c1CO/N=C(\C)c1nccc(C(F)(F)F)n1 [Example 73] | 13%
CNC(=O)/C(=N/OC)c1cccc(C)c1CO/N=C(\C)c1cncc(/C(C)=N/OC)n1 [Example 83] | 21%
CO/N=C(/C(=O)OC)c1cccc(C)c1CO/N=C(\C)c1ccc(Cl)nn1 [Example 91] | 16%
CO/N=C(/C(=O)OC)c1cccc(C)c1CO/N=C(\C)c1cnc(C)c(F)c1 [Example 100] | 12%
CNC(=O)/C(=N/OC)c1cccc(C)c1CO/N=C(\C)c1cnc(C)c(F)c1 [Example 101] | 15%

Each compound was assayed on Septoria tritici (assay: microbe, parasite or virus in culture). Conditions: Zymoseptoria tritici, 168 h.
Format: cell-based

SMILES | activity at 31 ppm
CO/N=C(/C(=O)OC)c1cccc(C)c1CO/N=C(\C)c1cccc(C(F)(F)F)n1 [Example 1] | 10%
CNC(=O)/C(=N/OC)c1cccc(C)c1CO/N=C(\C)c1cccc(OC)n1 [Example 3] | 4%
CNC(=O)/C(=N/OC)c1cccc(C(F)(F)F)c1CO/N=C(\C)c1cc(-c2ccc(Cl)cc2)on1 [Example 17] | 1%
CNC(=O)/C(=N/OC)c1cccc(C)c1CO/N=C(\C)c1cc(C)ccn1 [Example 26] | 7%
CO/N=C(/C(=O)OC)c1cccc(C)c1CO/N=C(\C)c1ncsc1C(F)(F)F [Example 40] | 0%
CO/N=C(/C(=O)OC)c1cccc(C)c1CO/N=C(\C)c1nccc2ccccc12 [Example 44] | 2%
CNC(=O)/C(=N/OC)c1cccc(C)c1CO/N=C(\C)c1nccc2ccccc12 [Example 45] | 6%
CO/N=C(/C(=O)OC)c1cccc(C)c1CO/N=C(\C)c1cn(C)nc1C(F)(F)F [Example 51] | 3%
CNC(=O)/C(=N/OC)c1cccc(C)c1CO/N=C(\C)c1cc(C(F)(F)F)nc(C)n1 [Example 58] | 21%
CNC(=O)/C(=N/OC)c1cccc(C)c1CO/N=C(\C)c1cc2ccccc2cn1 [Example 67] | 5%
CO/N=C(/C(=O)OC)c1cccc(C)c1CO/N=C(\C)c1nccc(C(F)(F)F)n1 [Example 71] | 0%
CNC(=O)/C(=N/OC)c1cccc(C)c1CO/N=C(\C)c1nccc(C(F)(F)F)n1 [Example 73] | 21%
CO/N=C(/C(=O)OC)c1cccc(C)c1CO/N=C(\C)c1cnc(C)c(F)c1 [Example 100] | 19%

The compounds below were run on Phytophthora infestans (assay: microbe, parasite or virus in culture). Conditions: 168 h, read-out: Fungal growth at 31 ppm (%) PHYTIN.
Format: cell-based

SMILES | activity at 31 ppm
CNC(=O)/C(=N/OC)c1cccc(C)c1CO/N=C(\C)c1cccc(OC)n1 [Example 3] | 0%
CNC(=O)/C(=N/OC)c1cccc(C)c1CO/N=C(\C)c1cc(-c2ccc(Cl)cc2)sn1 [Example 8] | 6%
CNC(=O)/C(=N/OC)c1cccc(C(F)(F)F)c1CO/N=C(\C)c1cc(-c2ccc(Cl)cc2)on1 [Example 17] | 0%
CNC(=O)/C(=N/OC)c1cccc(C)c1CO/N=C(\C)c1cc(-c2ccc(Cl)cc2)on1 [Example 20] | 3%
CNC(=O)/C(=N/OC)c1cccc(C)c1CO/N=C(\C)c1cc(C)ccn1 [Example 26] | 0%
CNC(=O)/C(=N/OC)c1cccc(C)c1CO/N=C(\C)c1cc(-c2ccccc2)sn1 [Example 38] | 6%
CO/N=C(/C(=O)OC)c1cccc(C)c1CO/N=C(\C)c1ncsc1C(F)(F)F [Example 40] | 8%
CO/N=C(/C(=O)OC)c1cccc(C)c1CO/N=C(\C)c1nccc2ccccc12 [Example 44] | 15%
CNC(=O)/C(=N/OC)c1cccc(C)c1CO/N=C(\C)c1nccc2ccccc12 [Example 45] | 0%
CNC(=O)/C(=N/OC)c1cccc(C)c1CO/N=C(\C)c1cc(OC)ccn1 [Example 56] | 0%
CNC(=O)/C(=N/OC)c1cccc(C)c1CO/N=C(\C)c1cc(C(F)(F)F)nc(C)n1 [Example 58] | 11%
CNC(=O)/C(=N/OC)c1cccc(C)c1CO/N=C(\C)c1cc2ccccc2cn1 [Example 67] | 0%
CO/N=C(/C(=O)OC)c1cccc(C)c1CO/N=C(\C)c1ccc(C#CC2CC2)nc1 [Example 68] | 3%
CO/N=C(/C(=O)OC)c1cccc(C)c1CO/N=C(\C)c1nccc(C(F)(F)F)n1 [Example 71] | 0%
CNC(=O)/C(=N/OC)c1cccc(C)c1CO/N=C(\C)c1nccc(C(F)(F)F)n1 [Example 73] | 1%
CO/N=C(/C(=O)OC)c1cccc(C)c1CO/N=C(\C)c1ccc(Cl)nn1 [Example 91] | 0%
CO/N=C(/C(=O)OC)c1cccc(C)c1CO/N=C(\C)c1cnc(C)c(F)c1 [Example 100] | 0%
CNC(=O)/C(=N/OC)c1cccc(C)c1CO/N=C(\C)c1cnc(C)c(F)c1 [Example 101] | 0%
CO/N=C(/C(=O)OC)c1cccc(C)c1CO/N=C(\C)c1cncn1C [Example 102] | 0%
